Assay results taken from patent US4649157A, “Pharmaceutical compositions containing 5-phenyl-1,3-dioxoalkenyl compounds” (G. D. Searle & Co., priority 1986, dated 1987).

Test system: Leukotriene C4 (LTC4) and leukotriene D4 (LTD4) biosynthesis by cultured rat basophilic leukemia cells (RBL-1 cells)
Experiment: Inhibition of leukotriene biosynthesis (LTC4 and LTD4, ionophore-induced) in cultured RBL-1 cells, quantitated by radioimmunoassay
Format: cell-based
Settings: LTC4 equivalents by [3H]-RIA
Description: Leukotriene C4 (LTC4) and leukotriene D4 (LTD4) biosynthesis by cultured rat basophilic leukemia cells (RBL-1 cells) was induced by incubation of the cells with an ionophore. See B. A. Jakschik, S. Falkenheim, and C. W. Parker, "Precursor Role of Arachidonic Acid in Release of Slow Reacting Substance from Rat Basophilic Leukemia Cells," Proc Natl. Acad. Sci. U.S.A., 74, 4577-4581 (1977). The LTC4 and LTD4 biosynthesis was quantitated at LTC4 equivalents by radioimmunoassay using the Leukotriene C4 [^3 H]-RIA Kit available commercially from New England Nuclear, 549 Albany Street, Boston, Mass. Compounds were screened initially at 10^-4 M or 10^-5 M and compared with nordihydroguaiaretic acid (the reference standard). A compound inhibiting leukotriene synthesis at any given concentration by at least 30% relative to the reference standard was considered active. […] Table A lists IC50 's for representative compounds of this invention.

Row | SMILES | IC50
1 | CCOC(=O)CC(=O)C=Cc1cccc(Oc2ccc(Cl)cc2)c1 [Example 21, ethyl 5-[3-(4-chlorophenoxy)phenyl]-3-oxo-4-pentenoate] | 26.5 µM
2 | CCOC(=O)CC(=O)C=Cc1ccc(OC)cc1 [Example 23, ethyl 5-(4-methoxyphenyl)-3-oxo-4-pentenoate] | 67 µM
3 | CCOC(=O)CC(=O)C=Cc1cccc2ccccc12 [Example 27, ethyl 5-(1-naphthyl)-3-oxo-4-pentenoate] | 27.2 µM

Further lines, results first:

Row | IC50 | SMILES
4 | 27 µM | CCOC(=O)CC(=O)C=Cc1cccc(Oc2ccccc2)c1 [Example 20, ethyl 3-oxo-5-(3-phenoxyphenyl)-4-pentenoate]
5 | 20 µM | CCOC(=O)CC(=O)C=Cc1ccccc1 [Example 1, ethyl 3-oxo-5-phenyl-4-pentenoate]
